From patent US8044042B2, “Thienotriazolodiazepine compound and medicinal use thereof” (Mitsubishi Tanabe Pharma Corporation, priority 2005, dated 2011)
Where two headings read alike, the source gives them in different places.

Assays:
[1] = tested on: CD28-dependent T cell growth; experiment: Mouse T cell proliferation stimulated with anti-CD28 antibody and PMA (tritiumthymidine uptake); type: cell-based; conditions: for IC50: BALB/c mouse T cells, 10 ng/mL PMA and 250 ng/mL anti-CD28 antibody, tritiumthymidine uptake, read-out: CD28-dependent T cell growth suppressive action (IC50); for CD28-dependent T cell growth suppressive action (in words): mouse T cells stimulated with PMA and anti-CD28 antibody
Experimental: The spleen was aseptically isolated from 6-7-week-old male BALB/c mice (CHARLES RIVER LABORATORIES JAPAN, INC.), and splenocyte suspension was prepared using RPMI1640 medium (manufactured by Sigma-Aldrich Ltd.). After hemolysis by a hypotonic treatment using a mixed solution of 0.83% aqueous ammonium chloride and Tris-HCl buffer (pH 7.65) at 9:1, a T cell concentrated fraction was obtained using a T cell concentrated column (manufactured by R&D systems). A cell suspension prepared using RPMI1640 medium containing 10% fetal calf serum (FCS, manufactured by Sigma-Aldrich Ltd.) was added to a flat-bottomed 96 well microtest plate (manufactured by Becton, Dickinson and Company) at 5×10^5 cells/well. Furthermore, a test compound diluted with a medium to the final concentration of 1-10000 nmol/L, 10 ng/mL PMA (manufactured by Sigma-Aldrich Ltd.) and 250 ng/mL anti-CD28 antibody (manufactured by BD pharmingen) were added, and the mixture was cultured under the conditions of 37° C., 5% carbon dioxide, 95% air for 20 hr. After the completion of culture, tritiumthymidine (specific activity: […], manufactured by MP Biochemicals) was added at 18.5 kBq/well, and the mixture was further cultured for 4 hr. Then, the cells were recovered in a glass fiber filter using a cell harvester (manufactured by Molecular Devices Corp.), the radioactivity taken into the cells was measured using a plate scintillation counter (microbeta 1460, manufactured by PerkinElmer), based on which the mouse T cell growth induced by stimulation with PMA and anti-CD28 antibody was measured. To be specific, suppressing rate (%)=(1−(radioactivity (cpm) of well added with test compound)/(radioactivity (cpm) of well without addition of test compound))×100 was calculated from the average amount of tritiumthymidine uptake (cpm) of T cells in each well added with various concentrations of test compound. In addition, based on the dose response curve obtained by plotting the average tritiumthymidine uptake amount (cpm) or suppressing rate on the vertical axis and the concentration on the transverse axis, the concentration of the compound (IC50) suppressing the value to 50% of that of the control group was determined by nonlinear regression.

[2] = tested on: TYPE II Collagen-Induced Arthritis in DBA/1J Mouse; experiment: Type II collagen-induced arthritis in DBA/1J mouse; type: in vivo; conditions: 840 h; for inhibition in vivo at 3 mg/kg: 3 mg/kg oral, 2 weeks from booster, average arthritis score at 35 days after primary immunization, P <0.05, read-out: suppressing rate (%) of arthritis score
Experimental: Bovine Type II collagen (purchased from collagen technical workshop) (100-200 μg) was mixed with complete Freund's adjuvant (manufactured by Sigma-Aldrich Ltd.) containing killed tuberculosis H37Ra. Using the resulting emulsion, 6 to 7-week-old male DBA/1J mice (CHARLES RIVER LABORATORIES JAPAN, INC.) were subcutaneously immunized at the tail root twice at 3 week intervals, whereby arthritis was developed. A test compound was suspended or dissolved in 0.5% carboxymethylcellulose (manufactured by Sigma-Aldrich Ltd.), and repetitively administered orally at a dose of 0.1-30 mg/kg body weight using an oral gavage needle for 2 weeks from the day of booster. As to this model, the symptoms of arthritis of four limbs were evaluated based on the following judgment criteria using the scores of from 0 to 4. The arthritis score of each mouse was shown by the total of the scores of four limbs (maximum: 16 points).
As regards the arthritis score, each group (n=5-6) was evaluated using an average value and mean error, with a group administered only with a vehicle being control, and Mann-Whitney U test was used for statistical analysis, wherein p value of 0.05 or below was determined to be significant. In the following, the suppressive action of the compound of the present invention on mouse collagen induced arthritis is shown by the suppressing rate (%) (1−(average arthritis score of compound administration group)/(average arthritis score of control group)×100) calculated from the average arthritis score at 35 days after the primary immunization.

[3] = tested on: Experimental Autoimmune Encephalomyelitis in SJL/J Mouse; experiment: Experimental autoimmune encephalomyelitis in SJL/J mouse; type: in vivo; conditions: 3 weeks from immunization, average EAE score at 14 days after immunization, P <0.05
Experimental: The 139th-151st peptides (50 μg) of rat-derived proteolipid protein (manufactured by Bachem) was mixed with complete Freund's adjuvant containing killed tuberculosis H37Ra. Using the resulting emulsion, 10-week-old female SJL/J mice (CHARLES RIVER LABORATORIES JAPAN, INC.) were subcutaneously immunized on the back, whereby experimental autoimmune encephalomyelitis (EAE) was developed. The compound of the present invention or a pharmaceutically acceptable salt thereof was suspended or dissolved in 0.5% carboxymethylcellulose (manufactured by Sigma-Aldrich Ltd.), and repetitively administered orally at a dose of 3-30 mg/kg body weight using an oral gavage needle for 3 weeks from the day of immunization. As to this model, the symptoms of EAE were evaluated based on the following judgment criteria using the scores of from 0 to 5.
As regards the EAE score, each group (n=10) was evaluated using an average value and mean error, with a group administered only with a vehicle being control, and Mann-Whitney U test was used for statistical analysis, wherein p value of 0.05 or below was determined to be significant. In the following, the suppressive action of the compound of the present invention on EAE is shown by the suppressing rate (%) calculated from the average EAE score at 14 days after the immunization. […] From the results, the compound is considered effective for encephalomyelitis, multiple sclerosis and the like.

[4] = tested on: Biphasic Auricular Edema in Egg Albumin-Induced Mouse; experiment: Egg albumin-induced mouse biphasic auricular edema; type: in vivo; conditions: for suppressing rate (%) of auricular edema: 3 mg/kg oral for 3 days, 24 hr later, P <0.05; for suppressive action on edema (in words): 3 mg/kg, 24 hr after induction with egg albumin
Experimental: Using saline (0.5 ml) containing egg albumin (10 μg, manufactured by Sigma-Aldrich Ltd.) and 1 mg of aluminum hydroxide gel, 6 to 7-week-old male BALB/c mice (CHARLES RIVER LABORATORIES JAPAN, INC.) were intraperitoneally immunized. Two weeks later, egg albumin (1.25 μg) was intradermally injected into the auricle of the mice for challenge, whereby biphasic auricular edema was induced 1 hr and 24 hr after the challenge. The compound of the present invention or a pharmaceutically acceptable salt thereof was suspended or dissolved in 0.5% carboxymethylcellulose, and repetitively administered orally at a dose of 0.01-30 mg/kg body weight for 3 days, from 2 days before the antigen challenge to the day of challenge, using an oral gavage needle. As for this model, the thickness of the auricle of the mouse was measured using a dial gauge (manufactured by Ozaki MFG. Co. Ltd.) and used as an index of auricular edema. As regards the thickness of the auricle, each group (n=8) was evaluated using an average value and mean error, with a group administered only with a vehicle being control, and t-test was used for statistical analysis, wherein p value of 0.05 or below was determined to be significant.

[5] = tested on: Mouse Graft-Versus-Host Reaction (GvHR); experiment: Mouse graft-versus-host reaction (GvHR); type: in vivo; conditions: P <0.05 vs vehicle
Experimental: Cyclophosphamide (manufactured by Shionogi & Co., Ltd.) is administered to male BDF1 recipient mouse (8-week-old, CHARLES RIVER LABORATORIES JAPAN, INC.) at a dose of 300 mg/kg from the tail vein as a pretreatment at 24 hr prior to injection of spleen cells. The spleen was aseptically isolated from male C57BL/6 donor mouse (8-week-old, CHARLES RIVER LABORATORIES JAPAN, INC.), minced in RPMI1640 medium (manufactured by Sigma-Aldrich Ltd.), and passed through a stainless mesh to give a splenocyte single cell suspension. After removal of red blood cells by a hypotonic treatment using a mixed solution of 0.83% aqueous ammonium chloride and Tris-HCl buffer (pH 7.65) at 9:1, splenocytes were washed and suspended in physiological saline to give a splenocyte suspension. The prepared cells were injected at 1×10^8 cells/mouse into the tail vein to induce acute GvHR. The compound of the present invention or a pharmaceutically acceptable salt thereof was suspended or dissolved in 0.5% carboxymethylcellulose, and repetitively administered orally at a dose of 3-30 mg/kg body weight for 28 days from the day of splenocyte injection, and the influence on the survival time was evaluated. After induction of acute GvHR, the survival of each individual was determined every day, and the day of confirmed death was taken as the survival time of each individual. As for the survival time, log-rank test analysis was performed using the group administered with vehicle alone as a control, and the multiplicity was adjusted by the Holm's method, wherein p value of 0.05 or below was determined to be significant.

[6] = 3 mg/kg oral for 28 days from splenocyte injection

Q: Which IC50 ([1]; T-cell) does the source give for `COC(=O)C[C@@H]1N=C(c2ccc(-c3cccc(C#N)c3)cc2)c2c(sc(C)c2C)-n2c(C)nnc21` [Example 8, Methyl (S)-{4-(3′-cyanobiphenyl-4-yl)-2,3,9-trimethyl-6H-thieno[3,2-f][1,2,4]triazolo[4,3-a][1,4]diazepin-6-yl}acetate] here?
A: 26 nM

Q: And the “CD28-dependent T cell growth suppressive action (in words)” value [1]?
A: have a CD28-dependent T cell growth suppressive action

Q: And the inhibition in vivo at 3 mg/kg [2]?
A: 50%

Q: What about the “suppressing rate (%) of EAE score” value ([3]; 10 mg/kg oral) of the same molecule?
A: 98%

Q: What about the “suppressing rate (%) of auricular edema” value [4] of the same molecule?
A: 40.5%

Q: What about the “suppressive action on edema (in words)” value [4] of the same molecule?
A: significant suppressive action on edema

Q: What about the median survival time [5, 6] of the same molecule?
A: 56 days

Q: Which IC50 [1] does the source give for `COC(=O)C[C@@H]1N=C(c2ccc(-c3ccccc3)cc2)c2c(sc(C)c2C)-n2c(C)nnc21` [Example 61, Methyl (S)-{4-biphenyl-2,3,9-trimethyl-6H-thieno[3,2-f][1,2,4]triazolo[4,3-a][1,4]diazepin-6-yl}acetate] here?
A: 55 nM

Q: And the “CD28-dependent T cell growth suppressive action (in words)” value [1]?
A: have a CD28-dependent T cell growth suppressive action

Q: For `COC(=O)C[C@@H]1N=C(c2ccc(Nc3ccccc3)cc2)c2c(sc(C)c2C)-n2c(C)nnc21` [Example 120, Methyl (S)-{2,3,9-trimethyl-4-(4-phenylaminophenyl)-6H-thieno[3,2-f][1,2,4]triazolo[4,3-a][1,4]diazepin-6-yl}acetate], which IC50 ([1]; T-cell) is on record?
A: 1.1 nM

Q: What about the “CD28-dependent T cell growth suppressive action (in words)” value [1] of the same molecule?
A: have a CD28-dependent T cell growth suppressive action

Q: And the inhibition in vivo at 3 mg/kg [2]?
A: 53.1%

Q: What does the source list for `CCOC(=O)C[C@@H]1N=C(c2ccc(NCc3ccc(F)cc3)cc2)c2c(sc(C)c2C)-n2c(C)nnc21` [Example 163, Ethyl (S)-(4-{4-[(4-fluorophenyl)methylamino]phenyl}-2,3,9-trimethyl-6H-thieno[3,2-f][1,2,4]triazolo[4,3-a][1,4]diazepin-6-yl)acetate]?
A: IC50 ([1]; T-cell): 70 nM; CD28-dependent T cell growth suppressive action (in words) [1]: have a CD28-dependent T cell growth suppressive action; inhibition in vivo at 3 mg/kg [2]: 57.4%; suppressing rate (%) of EAE score ([3]; 30 mg/kg oral): 60%; suppressing rate (%) of auricular edema [4]: 44.5%; suppressive action on edema (in words) [4]: significant suppressive action on edema; median survival time ([5]; 10 mg/kg oral for 28 days from splenocyte injection): 19 days

Q: What does the source list for `COC(=O)C[C@@H]1N=C(c2ccc(NCc3ccccc3)cc2)c2c(sc(C)c2C)-n2c(C)nnc21` [Example 167, Methyl (S)-{4-(4-benzylaminophenyl)-2,3,9-trimethyl-6H-thieno[3,2-f][1,2,4]triazolo[4,3-a][1,4]diazepin-6-yl}acetate]?
A: IC50 ([1]; T-cell): 29 nM; CD28-dependent T cell growth suppressive action (in words) [1]: have a CD28-dependent T cell growth suppressive action; inhibition in vivo at 3 mg/kg [2]: 61.4%; suppressing rate (%) of EAE score ([3]; 3 mg/kg oral): 62%; suppressing rate (%) of auricular edema [4]: 30.1%; suppressive action on edema (in words) [4]: significant suppressive action on edema; median survival time [5, 6]: 56 days

Q: For `Cc1sc2c(c1C)C(c1ccc(-c3cccc(C#N)c3)cc1)=NCc1nnc(C)n1-2` [Example 253, 4-(3′-cyanobiphenyl-4-yl)-2,3,9-trimethyl-6H-thieno[3,2-f][1,2,4]triazolo[4,3-a][1,4]diazepin], which IC50 ([1]; T-cell) is on record?
A: 100 nM

Q: What about the “CD28-dependent T cell growth suppressive action (in words)” value [1] of the same molecule?
A: have a CD28-dependent T cell growth suppressive action

Q: What about the inhibition in vivo at 10 mg/kg ([2]; po, read-out: suppressing rate (%) of arthritis score) of the same molecule?
A: 46.4%

Q: Which results are given for `COC(=O)C[C@@H]1N=C(c2ccc(NC(=O)CCc3ccccc3)cc2)c2c(sc(C)c2C)-n2c(C)nnc21` [Example 311, Methyl (S)-{2,3,9-trimethyl-4-[4-(3-phenylpropionylamino)phenyl]-6H-thieno[3,2-f][1,2,4]triazolo[4,3-a][1,4]diazepin-6-yl}acetate]?
A: IC50 ([1]; T-cell): 25 nM; CD28-dependent T cell growth suppressive action (in words) [1]: have a CD28-dependent T cell growth suppressive action; inhibition in vivo at 3 mg/kg [2]: 85.2%

Q: `C=CC[C@@H]1/C=C(\C)C[C@H](C)C[C@H](OC)[C@H]2O[C@@](O)(C(=O)C(=O)N3CCCC[C@H]3C(=O)O[C@H](/C(C)=C/[C@@H]3CC[C@@H](O)[C@H](OC)C3)[C@H](C)[C@@H](O)CC1=O)[C@H](C)C[C@@H]2OC` [Tacrolimus, tacrolimus, reference compound] was tested. Which “inhibition of T cell growth at 1 μM (in words)” value ([1]; 1 μM, calcineurin inhibitor) did it give?
A: hardly inhibits the growth even at 1 μM

Q: And the IC50 ([1]; T-cell)?
A: > 1000 nM
